The term melting point denotes the temperature of the solid-liquid transition.

Turning to `Cc1ccccc1-c1cccc2c1CNC(=O)N2c1ccccc1` [Example 14, 1-Phenyl-5-(2-methylphenyl)-3,4-dihydro-(1H)-quinazolin-2-one], the melting point lay within 236 to 238 °C.

Values taken from US6759410B1, “3,4-dihydro-(1H)-quinazolin-2-ones and their use as CSBP/p38 kinase inhibitors” (SmithLine Beecham Corporation, priority 1999, dated 2004).
